Experimental data taken from article PMC12254266, “Multicolored sequential resonance energy transfer for detection of simultaneous ligand binding at G protein-coupled receptors” (Nature Communications, 2025).
“And” between values parts separate entries of the source, which are not always exact repeats. Identical values can stand only once.

Target: FFA1-Nluc (Homo sapiens, UniProt O14842)
Assay: DISCo-BRET (endpoint, spectra scan, kinetics) with TUG-2591 and TUG-2597 at C terminal Nluc tagged FFA1
Type: binding
Parameters: expressed in transfected cells
Settings: for pIC50 DISCo-BRET SulfoCy5/NBD: one site model
Protocol: Nluc-FFA1 or FFA1-Nluc Flp-In T-REx 293 cells were plated at 50,000 cells per well in poly-D-lysine coated white 96-well plates. Cells were cultured for 24 h in the plate before medium was replaced with medium containing 100 ng/mL of doxycycline to induce receptor expression. After culturing for a further 24 h, culture medium was removed, cells washed with HBSS and incubated in HBSS for 30 min. For all DISCo-BRET formats Nano-Glo substrate was then added at a 1:800 final dilution and cells incubated for 10 min. Following substrate addition experimental set up different among the three formats: endpoint, spectra scan, and kinetics.
For endpoint experiments all fluorescent and unlabelled ligands were added to the cells and incubated for 5 min at 37 °C. Luminescent emission was then measured using a CLARIOstar microplate reader with monochromator set at 450–60 nm (Nluc), 540−60 nm (NBD) and 690–100 nm (SulfoCy5). BRET ratios were then calculated as either SulfoCy5 emission divided by NBD emission, SulfoCy5 emission divided by Nluc emission, or NBD emission divided by Nluc emission.
For spectra scan experiments all indicated fluorescent and unlabelled ligands were added to the cells and cells incubated for 5 min at 37 °C. Luminescence emissions were then measured from each well of the plate from 440 nm – 740 nm with a 5 nm resolution using a CLARIOstar microplate. Luminescent emission spectra were then normalised as a percentage of the maximal Nluc emission peak ( ~ 460 nm), then subtracted with the spectrum obtained in the presence of high concentrations of ligands competing for both binding sites to obtain specific BRET binding spectra.
In kinetic DISCo-BRET experiments plates were placed directly in a CLARIOstar plate reader set to 25 °C 10 min after Nano-Glo substrate addition. Luminescent measurements were then taken with three sequential measurements per well with the monochromator set to 450–60 nm (Nluc), 540 - 60 nm (NBD) and 690–100 nm (SulfoCy5) taken in 20 or 30 s intervals. After 5 min of background measurements, the plate reader was paused for the first indicated fluorescent ligand(s) addition, before immediately returning the plate to the reader to continue luminescence readings. After 5 min, the reader was again paused to add the second fluorescent ligand (association assays) or competing ligand(s) (dissociation assays), before immediately continuing the measurements for the indicated time. Non-specific control binding was obtained by adding the indicated competing ligand(s) 5 min prior to the addition of the first fluorescent ligand.

[1] = 100 nM TUG-2591 and […] TUG-2597, NC = No competition

Sequence of FFA1-Nluc (O14842 whole entry): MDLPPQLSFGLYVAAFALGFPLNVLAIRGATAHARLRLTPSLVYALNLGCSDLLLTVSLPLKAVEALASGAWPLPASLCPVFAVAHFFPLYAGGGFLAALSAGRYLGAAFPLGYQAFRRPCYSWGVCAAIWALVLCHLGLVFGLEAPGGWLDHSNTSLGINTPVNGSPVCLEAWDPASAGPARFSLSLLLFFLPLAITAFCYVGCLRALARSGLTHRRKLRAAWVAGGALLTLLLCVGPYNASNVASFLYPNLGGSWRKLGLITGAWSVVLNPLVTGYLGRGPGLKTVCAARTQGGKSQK

CC/C=C\C/C=C\C/C=C\CCCCCCCC(=O)O [aLA, α-linolenic acid, reference compound]
pIC50 DISCo-BRET NBD/Nluc [1]: ~ 2.9
pIC50 DISCo-BRET SulfoCy5/NBD [1]: ~ 3.7
Specific BRET (540/450), % of control (log[Ligand] -3.5, Figure 4Bi, single replicate values (technical duplicate)): 354.98 % of control and 422.66 % of control and 352.08 % of control and 364.14 % of control and 218.20 % of control and 190.12 % of control and 192.71 % of control and 171.70 % of control
Specific BRET (540/450), % of control (log[Ligand] -4, Figure 4Bi, single replicate values (technical duplicate)): 179.15 % of control and 260.42 % of control and 251.25 % of control and 232.54 % of control and 120.10 % of control and 104.16 % of control and 145.44 % of control and 143.73 % of control
Specific BRET (540/450), % of control (log[Ligand] -4.5, Figure 4Bi, single replicate values (technical duplicate)): 155.59 % of control and 151.36 % of control and 193.87 % of control and 183.26 % of control and 24.44 % of control and 77.47 % of control and 109.72 % of control and 124.03 % of control
Specific BRET (690/540), % of control (log[Ligand] -4.5, technical duplicate): 81.41 % of control and 79.89 % of control and 110.36 % of control and 102.58 % of control and 55.19 % of control and 61.69 % of control and 79.93 % of control
Specific BRET (540/450), % of control (log[Ligand] -5, Figure 4Bi, single replicate values (technical duplicate)): 123.87 % of control and 127.19 % of control and 164.97 % of control and 169.96 % of control and 63.60 % of control and 42.81 % of control and 103.55 % of control and 110.64 % of control
Specific BRET (690/540), % of control (log[Ligand] -5, technical duplicate): 89.67 % of control and 83.59 % of control and 104.96 % of control and 115.39 % of control and 81.83 % of control and 84.93 % of control and 95.09 % of control and 92.80 % of control
Specific BRET (540/450), % of control (log[Ligand] -5.5, Figure 4Bi, single replicate values (technical duplicate)): 115.11 % of control and 123.26 % of control and 154.99 % of control and 156.24 % of control and 24.44 % of control and 64.99 % of control and 93.96 % of control and 98.42 % of control
Specific BRET (690/540), % of control (log[Ligand] -5.5, technical duplicate): 91.96 % of control and 95.98 % of control and 110.87 % of control and 118.78 % of control and 93.29 % of control and 101.24 % of control and 95.01 % of control and 95.16 % of control
Specific BRET (540/450), % of control (log[Ligand] -6, Figure 4Bi, single replicate values (technical duplicate)): 117.22 % of control and 113.60 % of control and 140.23 % of control and 145.01 % of control and 35.88 % of control and 33.45 % of control and 94.09 % of control and 108.27 % of control
Specific BRET (540/450), % of control (log[Ligand] -7, Figure 4Bi, single replicate values (technical duplicate)): 110.27 % of control and 80.36 % of control and 117.15 % of control and 115.28 % of control and 96.88 % of control and 77.82 % of control and 92.78 % of control and 101.71 % of control
Specific BRET (690/540), % of control (log[Ligand] -7, technical duplicate): 92.39 % of control and 86.20 % of control and 111.87 % of control and 113.13 % of control and 97.73 % of control and 97.01 % of control and 100.19 % of control and 94.25 % of control
Specific BRET (690/540), % of control (log[ligand] -6, technical duplicate): 86.09 % of control and 86.20 % of control and 111.62 % of control and 112.25 % of control and 100.93 % of control and 101.65 % of control and 99.73 % of control and 101.33 % of control

CCCN1C(=O)c2ccccc2[C@@H](C(=O)O)[C@@H]1c1ccc(OCc2cccc(-c3ccc(OCCOCCNC(=O)OC(C)(C)C)cc3C)c2)cc1 (racemic) [TUG-2744]
pIC50 DISCo-BRET SulfoCy5/NBD [1]: 6.2±0.07
Specific BRET (690/540), % of control (log[Ligand] -5, Figure 4Aiii, single replicate values (technical duplicate)): 39.83 % of control and 31.90 % of control and 49.72 % of control and 41.62 % of control and 42.27 % of control and 54.60 % of control and 24.29 % of control and 24.93 % of control
Specific BRET (540/450), % of control (log[Ligand] -5, Figure 4Biii, single replicate values (technical duplicate)): 137.97 % of control and 140.19 % of control and 93.19 % of control and 74.76 % of control
Specific BRET (690/540), % of control (log[Ligand] -5.5, Figure 4Aiii, single replicate values (technical duplicate)): 37.03 % of control and 28.64 % of control and 34.65 % of control and 33.07 % of control and 31.01 % of control and 33.80 % of control and 21.95 % of control and 22.19 % of control
Specific BRET (540/450), % of control (log[Ligand] -5.5, Figure 4Biii, single replicate values (technical duplicate)): 128.99 % of control and 129.28 % of control and 107.91 % of control and 104.11 % of control and 75.59 % of control and 66.37 % of control
Specific BRET (690/540), % of control (log[Ligand] -6, Figure 4Aiii, single replicate values (technical duplicate)): 54.48 % of control and 58.02 % of control and 68.62 % of control and 58.61 % of control and 60.18 % of control and 39.48 % of control and 47.55 % of control and 54.64 % of control
Specific BRET (540/450), % of control (log[Ligand] -6, Figure 4Biii, single replicate values (technical duplicate)): 100.93 % of control and 117.25 % of control and 87.18 % of control and 77.69 % of control and 68.48 % of control and 67.29 % of control
Specific BRET (690/540), % of control (log[Ligand] -6.5, Figure 4Aiii, single replicate values (technical duplicate)): 81.72 % of control and 80.69 % of control and 83.13 % of control and 96.40 % of control and 81.56 % of control and 79.15 % of control and 75.55 % of control and 78.81 % of control
Specific BRET (540/450), % of control (log[Ligand] -6.5, Figure 4Biii, single replicate values (technical duplicate)): 102.36 % of control and 114.39 % of control and 83.39 % of control and 83.86 % of control and 94.27 % of control and 96.38 % of control
Specific BRET (690/540), % of control (log[Ligand] -7, Figure 4Aiii, single replicate values (technical duplicate)): 91.79 % of control and 92.91 % of control and 97.64 % of control and 109.79 % of control and 98.51 % of control and 104.19 % of control and 93.40 % of control and 97.61 % of control
Specific BRET (540/450), % of control (log[Ligand] -7, Figure 4Biii, single replicate values (technical duplicate)): 116.11 % of control and 107.80 % of control and 95.73 % of control and 91.61 % of control and 84.18 % of control and 85.41 % of control
Specific BRET (690/540), % of control (log[Ligand] -8, Figure 4Aiii, single replicate values (technical duplicate)): 103.08 % of control and 96.92 % of control and 107.31 % of control and 115.19 % of control and 106.98 % of control and 101.78 % of control and 103.46 % of control and 103.17 % of control
Specific BRET (540/450), % of control (log[Ligand] -8, Figure 4Biii, single replicate values (technical duplicate)): 110.67 % of control and 105.51 % of control and 101.90 % of control and 100.00 % of control and 64.33 % of control and 77.86 % of control
Specific BRET (690/540), % of control (log[Ligand] -9, Figure 4Aiii, single replicate values (technical duplicate)): 95.62 % of control and 111.25 % of control and 100.79 % of control and 103.71 % of control and 132.11 % of control
Specific BRET (540/450), % of control (log[Ligand] -9, Figure 4Biii, single replicate values (technical duplicate)): 110.95 % of control and 125.84 % of control and 113.61 % of control and 148.10 % of control and 60.11 % of control and 65.92 % of control
'bottom' of the IC50 curve, DISCo-BRET SulfoCy5/NBD (percentage of binding obtained in the absence of competing ligand, 100 nM TUG-2591 and […] TUG-2597): 26%
pKi DISCo-BRET SulfoCy5/NBD (using Kd TUG-2591 57 nM): 6.6±0.07
